Experimental data reported in patent US20050042293A1, “Polymeric systems for drug delivery and uses thereof” (The University of British Columbia, priority 1997, published 2005).
Values after ≈ are worked out from the molar mass of the structure shown. Like-named read-outs stand apart in the source and are kept apart here.

Legend:
[1] = cited from earlier work
LNCaP cells [2] = test: LNCaP cell proliferation in vitro (crystal violet, 492 nm absorbance); type: cell-based, human; settings: for % Growth: relative to control wells (100%)
Protocol: LNCap cells are human metastatic prostate adenocarcinoma cells that are used as a model for prostate cancer (see, e.g., Pousette et al., Prostate 31:198, 1997). In one study, LNCaP cells were seeded at concentrations of 2×10^3 and 1×10^3 cells/well in 96 well plates. […] After incubation, the cells were fixed with 1% glutaraldehyde solution, and stained for 5 minutes with 0.5% crystal violet. The dye was successively eluted with 100 μl of buffer solution and the absorbance was read on a Titertek Multiskan microplate reader using a wavelength of 492 nm absorbance. Cell growth was expressed as a percentage relative to control wells in the absence of the compound (set at 100%).

[3] = Water solubility studies by the present inventors
[4] = In vitro drug release from TB:MePEG350 pastes into PBS/albumin with octanol phase; type: physicochemical; settings: 10% drug-loaded TB:MePEG350 (40:60) paste
Protocol: Fifteen milligrams of each composition were placed in 20 mL glass scintillation vials and cooled to 4° C. to form uniform solid pellets. Five milliliters of ice cold phosphate-buffered saline (PBS; pH 7.4) containing 0.2% bovine serum albumin (Fraction 4, Boehringer Mannheim) were placed on top of the pellet followed by 5 mL of octanol (Fisher Scientific). The octanol formed an upper imiscible phase on top of the PBS so that any drug released into the PBS would partition into the octanol phase.
UV/VIS analysis was performed by determining the absorbance at the specified wavelength. Calibration graphs of the drugs in octanol were established by measuring the absorbance of a set of standards of each drug in octanol in the 0 to 50 μg/mL concentration range.

LNCaP cells [5] = test: Apoptosis / DNA fragmentation assay in LNCaP cells; type: cell-based, human
[6] = single dose in humans; cited from earlier work
[7] = Drug-dependent solidification: time for paste pellets to break up under stirring at 300 rpm at 37° C.; type: physicochemical; settings: 10% w/w drug in 40:60 (TB:MePEG350) paste; 1 hour at 37° C. then 300 rpm
Protocol: Fifteen milligrams of each composition were placed in a 20 mL glass scintillation vial and cooled to 4° C. to form uniform solid pellets. Five milliliters of ice cold phosphate-buffered saline (PBS; pH 7.4) containing 0.2% bovine serum albumin (Fraction 4, Boehringer Mannheim) were placed on top of the pellet, and the vial was placed in a stationary position in a 37° C. oven for 1 hour. At this time, a stir bar was placed in the vial and stirring was commenced at 300 rpm until the paste pellet disintegrated.

C[C@@H]1[C@H](O)[C@@H](C)/C=C/C=C/C=C/C=C/C=C/C=C/C=C/[C@H](O[C@@H]2O[C@H](C)[C@@H](O)[C@H](N)[C@@H]2O)C[C@@H]2O[C@](O)(C[C@@H](O)C[C@@H](O)[C@H](O)CC[C@@H](O)C[C@@H](O)CC(=O)O[C@H]1C)C[C@H](O)[C@H]2C(=O)O [Amphotericin]
solubility in water (in words) ([1]; water at pH 6 to 7): insoluble in water | solubility in water (in words) ([1]; water): insoluble in water | solubility (physchem; water): < 2 µg/mL

O=C1c2c(O)cccc2Cc2cccc(O)c21 [Anthralin]
solubility in water (in words) ([1]; water): practically insoluble in water

C[C@H]1C[C@H]2[C@@H]3CCC4=CC(=O)C=C[C@]4(C)[C@@]3(F)[C@@H](O)C[C@]2(C)[C@@]1(O)C(=O)CO [Betamethasone]
solubility in water ([1]; water): 190 µg/mL (≈ 484 µM)

CC[C@@]1(O)C(=O)OCc2c1cc1n(c2=O)Cc2cc3ccccc3nc2-1 [Camptothecin]
percentage of cells to which the drug was toxic (LNCaP cells [2]; 0.001 nM): over 60% | 492 nm Absorbance (LNCaP cells [2]; 0.001 nM, 5 days): 0.169 ± 0.05 | % Growth (LNCaP cells [2]; 0.001 nM, 5 days): 36% | 492 nm Absorbance (LNCaP cells [2]; 0.05 nM, 5 days): 0.14 ± 0.04 | % Growth (LNCaP cells [2]; 0.05 nM, 5 days): 29% | 492 nm Absorbance (LNCaP cells [2]; 0.1 nM, 5 days): 0.10 ± 0.02 | % Growth (LNCaP cells [2]; 0.1 nM, 5 days): 21% | 492 nm Absorbance (LNCaP cells [2]; 1 nM, 5 days): 0.10 ± 0.02 | % Growth (LNCaP cells [2]; 1 nM, 5 days): 21% | 492 nm Absorbance (LNCaP cells [2]; 10 nM, 5 days): 0.088 ± 0.02 | % Growth (LNCaP cells [2]; 10 nM, 5 days): 17% | 492 nm Absorbance (LNCaP cells [2]; 100 nM, 5 days): 0.038 ± 0.01 | % Growth (LNCaP cells [2]; 100 nM, 5 days): 8% | IC50 against LNCaP cells (in words) (LNCaP cells [2]; inferred from Table 12): femtomolar concentration range | solubility in water ([1]; water): 1 to 2 µg/mL | solubility in water (in words) ([1]; water): insoluble in water | solubility ([3]; water): < 2 µg/mL

COc1cc(/C=C/C(=O)CC(=O)/C=C/c2ccc(O)c(OC)c2)ccc1O [Curcumin]
solubility in water (in words) ([1]; water): practically insoluble in water | solubility (physchem; water): < 2 µg/mL

C[C@@H]1C[C@H]2[C@@H]3CCC4=CC(=O)C=C[C@]4(C)[C@@]3(F)[C@@H](O)C[C@]2(C)[C@@]1(O)C(=O)CO [Dexamethasone]
solubility in water ([1]; water): 10 µg/mL (≈ 25.5 µM)

O=c1c(-c2ccc(O)cc2)coc2cc(O)cc(O)c12 [Genistein]
total encapsulated drug released ([4]; by day 7): 50% | solubility in water (in words) ([1]; water): practically insoluble in water | solubility in water (in words) ([1]; water, listed as genistein): insoluble in water | water solubility ([3]; water): approximately 1 μg/mL | solubility ([3]; water, water solubility): < 2 µg/mL

COc1ccc2c(c1)c(CC(=O)O)c(C)n2C(=O)c1ccc(Cl)cc1 [Indomethacin]
solubility in water (in words) ([1]; water): practically insoluble in water

CC(=O)O[C@H]1C(=O)[C@@]2(C)[C@H]([C@H](OC(=O)c3ccccc3)[C@]3(O)C[C@H](OC(=O)[C@H](O)[C@@H](NC(=O)c4ccccc4)c4ccccc4)C(C)=C1C3(C)C)[C@]1(OC(C)=O)CO[C@@H]1C[C@@H]2O [Paclitaxel]
492 nm Absorbance (LNCaP cells [2]; 0.001 nM, 5 days): 0.049 ± 0.05 | % Growth (LNCaP cells [2]; 0.001 nM, 5 days): 100% | 492 nm Absorbance (LNCaP cells [2]; 0.01 nM, 5 days): 0.40 ± 0.03 | % Growth (LNCaP cells [2]; 0.01 nM, 5 days): 81% | 492 nm Absorbance (LNCaP cells [2]; 0.05 nM, 5 days): 0.36 ± 0.02 | % Growth (LNCaP cells [2]; 0.05 nM, 5 days): 73% | 492 nm Absorbance (LNCaP cells [2]; 0.1 nM, 5 days): 0.20 ± 0.03 | % Growth (LNCaP cells [2]; 0.1 nM, 5 days): 40% | 492 nm Absorbance (LNCaP cells [2]; 1 nM, 5 days): 0.025 ± 0.01 | % Growth (LNCaP cells [2]; 1 nM, 5 days): 5% | 492 nm Absorbance (LNCaP cells [2]; 10 nM, 5 days): 0.027 ± 0.01 | % Growth (LNCaP cells [2]; 10 nM, 5 days): 5% | 492 nm Absorbance (LNCaP cells [2]; 100 nM, 5 days): 0.033 ± 0.01 | % Growth (LNCaP cells [2]; 100 nM, 5 days): 6% | lowest concentration causing inhibition of LNCaP cell growth (LNCaP cells [2]; 5 days): 10 pM | IC50 (LNCaP cells [2]; Homo sapiens, LNCaP, 120 h, 5 days incubation, read-out: IC50, LNCaP cell growth): ~0.09 nM | DNA fragmentation (gel electrophoresis) (LNCaP cells [5]; 100 nM, 18 hours of treatment): induced DNA fragmentation | apoptosis by optical microscopy (LNCaP cells [5]; paclitaxel treated cells, intracellular apoptotic bodies): clear evidence of apoptosis | solubility in water ([1]; water): 1 to 2 µg/mL | solubility in water (in words) ([1]; water): insoluble in water | toxic limit [6]: 200 mg | solubility (physchem; water): < 2 µg/mL

CC1=C(/C=C/C(C)=C/C=C/C(C)=C/C(=O)O)C(C)(C)CCC1 [Tretinoin]
solubility in water (in words) ([1]; water): practically insoluble in water | solubility in water (in words) ([1]; water, listed as tretinoin): insoluble in water | solubility (physchem; water): < 2 µg/mL

COc1cc2c(c(OC)c1OC)-c1ccc(OC)c(=O)cc1[C@@H](NC(C)=O)CC2 [colchicine]
time paste pellet stayed intact under stirring [7]: 2.5 min | solubility ([3]; pH 7.4, aqueous buffer, water solubility in PBS/albumin, PBS/albumin (pH 7.4)): > 500 µg/mL

CN(Cc1cnc2nc(N)nc(N)c2n1)c1ccc(C(=O)N[C@@H](CCC(=O)O)C(=O)O)cc1 [methotrexate]
disintegration time under stirring [7]: 30 s | encapsulated drug released ([4]; first 24 hours): almost all the encapsulated drug | solubility (physchem; pH 7.4, aqueous buffer): > 500 µg/mL

C[C@@H]1[C@H](O)[C@@H](C)/C=C/C=C/CC/C=C/C=C/C=C/C=C/C(O[C@H]2O[C@H](C)[C@@H](O)[C@H](N)[C@@H]2O)CC2O[C@](O)(CC(O)C(O)CCC(O)CC(O)CC(O)CC(=O)O[C@H]1C)CC(O)C2C(=O)O (some centres unmarked) [nystatin]
solubility in water (in words) ([1]; water): insoluble in water
